Laboratory results from patent US10125098B2, “Therapeutic compounds and methods of use thereof” (GENENTECH, INC., priority 2014, dated 2018).
pIC50: −log10 of the molar value. Where a name gives a salt, the structure may show the parent alone.

Biological target: T1, hNav1.7 (Homo sapiens, UniProt Q15858)
T1 construct: expressed in transfected cells
Experiment: Tritiated compound binding (LBA) to membranes from cells expressing hNav1.7 and the β1 subunit, competitive binding
Conditions: competitive binding vs 100 pM [3H]compound, 18 h, room temperature, membranes with hNav1.7 and β1 subunit
Procedure: Tritiated Compound Binding to Membranes
Isolated from Cells that Heterologously Express hNav1.7 and the β1 Subunit
Preparation of membranes containing recombinantly expressed sodium channels: Frozen recombinant cell pellets were thawed on ice and diluted to 4 times the cell pellet weight with ice cold 50 mM Tris HCl, pH 7.4 buffer. The cell suspensions were homogenized on ice using a motorized glass dounce homogeniser. […] The supernatants were collected and centrifuged at 10000×g at 4° C. for 50 min. The pellets were then re-suspended in 100 mM NaCl, 20 mM Tris HCl, pH 7.4 buffer containing 1% v/v protease inhibitors (Calbiochem) and re-homogenized on ice. The homogenized membranes were then processed through a syringe equipped with a 26 gauge needle. Protein concentrations were determined by Bradford Assay and the membranes were stored at −80° C.
Saturation experiments. A representative compound of formula (I) having a methyl group was tritiated. Three tritiums were incorporated in place of methyl hydrogens to generate [^3H]compound. Binding of this radioligand was performed in 5 mL borosilicate glass test tubes at room temperature. Binding was initiated by adding membranes to increasing concentrations of [^3H]compound in 100 mM NaCl, 20 mM Tris HCl, pH 7.4 buffer containing 0.01% w/v bovine serum albumin (BSA) for 18 h. Non-specific binding was determined in the presence of 1 μM unlabeled compound. After 18 h, the reactants were filtered through GF/C glass fiber filters presoaked in 0.5% w/v polyethylene imine. […] [^3H]compound bound to filters was quantified by liquid scintillation counting.
Binding reactions were performed in 96-well polypropylene plates at room temperature for 18 h. In 360 μL, membranes were incubated with 100 pM [^3H]compound and increasing concentrations of Test Compound. Non-specific binding was defined in the presence of 1 μM unlabeled compound. Reactions were transferred and filtered through 96-well glass fiber/C filter plates presoaked with 0.5% polyethylene imine. […] Bound radioactivity was determined by liquid scintillation counting.
Data Analysis: For saturation experiments, non-specific binding was subtracted from total binding to provide specific binding and these values were recalculated in terms of pmol ligand bound per mg protein. Saturation curves were constructed and dissociation constants were calculated using the single site ligand binding model: Beq=(Bmax*X)/(X+Kd), where Beq is the amount of ligand bound at equilibrium, Bmax is the maximum receptor density, Kd is the dissociation constant for the ligand, and X is the free ligand concentration. For competition studies percent inhibition was determined and IC50 values were calculated using a 4 parameter logistic model (% inhibition=(A+((B−A)/(1+((x/C)^D)))) using XLfit, where A and B are the maximal and minimum inhibition respectively, C is the IC50 concentration and D is the (Hill) slope.

T1 sequence (Q15858 1-1977 isoform Q15858-3): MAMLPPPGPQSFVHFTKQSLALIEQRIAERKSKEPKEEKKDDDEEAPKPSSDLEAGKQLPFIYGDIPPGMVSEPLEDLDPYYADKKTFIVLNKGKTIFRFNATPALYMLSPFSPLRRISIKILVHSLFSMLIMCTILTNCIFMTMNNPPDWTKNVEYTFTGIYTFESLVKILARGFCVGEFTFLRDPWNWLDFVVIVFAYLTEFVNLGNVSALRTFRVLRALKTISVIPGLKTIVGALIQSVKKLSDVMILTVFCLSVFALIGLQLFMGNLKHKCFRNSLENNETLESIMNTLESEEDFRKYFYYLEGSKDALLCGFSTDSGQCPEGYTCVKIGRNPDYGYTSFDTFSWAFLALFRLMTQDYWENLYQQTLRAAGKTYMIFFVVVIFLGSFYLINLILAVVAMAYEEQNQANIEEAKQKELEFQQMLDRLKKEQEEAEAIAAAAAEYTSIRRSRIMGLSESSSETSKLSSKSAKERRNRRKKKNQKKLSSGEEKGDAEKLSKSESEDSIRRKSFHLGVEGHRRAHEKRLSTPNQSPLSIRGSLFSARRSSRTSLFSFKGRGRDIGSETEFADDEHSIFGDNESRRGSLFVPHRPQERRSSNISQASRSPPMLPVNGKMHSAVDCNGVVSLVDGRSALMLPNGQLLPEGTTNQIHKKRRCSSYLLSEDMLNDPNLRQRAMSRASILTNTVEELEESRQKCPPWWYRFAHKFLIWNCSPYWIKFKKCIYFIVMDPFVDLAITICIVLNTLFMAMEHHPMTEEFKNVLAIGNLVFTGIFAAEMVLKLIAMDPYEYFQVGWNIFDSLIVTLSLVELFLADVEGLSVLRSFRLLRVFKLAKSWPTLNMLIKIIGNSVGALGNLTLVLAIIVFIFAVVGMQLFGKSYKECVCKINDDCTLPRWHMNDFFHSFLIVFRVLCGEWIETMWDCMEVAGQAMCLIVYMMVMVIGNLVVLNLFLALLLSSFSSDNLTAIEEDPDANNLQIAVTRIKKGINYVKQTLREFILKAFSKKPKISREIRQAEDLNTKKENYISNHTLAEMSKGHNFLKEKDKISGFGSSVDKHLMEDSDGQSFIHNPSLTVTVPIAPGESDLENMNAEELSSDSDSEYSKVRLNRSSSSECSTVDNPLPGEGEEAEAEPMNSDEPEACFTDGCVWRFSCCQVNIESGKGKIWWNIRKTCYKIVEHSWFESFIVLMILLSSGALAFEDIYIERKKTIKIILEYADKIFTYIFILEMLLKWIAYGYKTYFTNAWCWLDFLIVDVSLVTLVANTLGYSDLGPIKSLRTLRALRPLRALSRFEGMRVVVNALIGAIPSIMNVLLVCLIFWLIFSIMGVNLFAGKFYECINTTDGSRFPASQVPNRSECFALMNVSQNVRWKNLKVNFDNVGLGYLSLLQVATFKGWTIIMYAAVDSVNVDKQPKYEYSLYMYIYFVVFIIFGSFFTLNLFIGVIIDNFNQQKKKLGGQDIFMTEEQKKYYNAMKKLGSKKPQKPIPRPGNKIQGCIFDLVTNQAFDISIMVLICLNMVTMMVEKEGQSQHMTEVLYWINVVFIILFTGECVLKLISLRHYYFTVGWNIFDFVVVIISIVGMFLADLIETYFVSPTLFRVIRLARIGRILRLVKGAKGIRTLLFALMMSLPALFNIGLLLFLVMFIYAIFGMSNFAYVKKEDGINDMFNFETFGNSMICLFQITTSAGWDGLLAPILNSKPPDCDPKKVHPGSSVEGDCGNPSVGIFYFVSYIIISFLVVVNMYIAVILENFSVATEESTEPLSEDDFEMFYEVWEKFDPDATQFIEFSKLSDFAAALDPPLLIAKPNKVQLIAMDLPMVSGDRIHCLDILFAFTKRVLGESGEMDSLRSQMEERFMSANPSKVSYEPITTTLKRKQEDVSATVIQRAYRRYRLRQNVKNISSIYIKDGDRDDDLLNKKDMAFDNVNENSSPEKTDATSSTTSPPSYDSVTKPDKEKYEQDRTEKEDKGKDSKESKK
T1 sequence (Q07699 19-218 partner): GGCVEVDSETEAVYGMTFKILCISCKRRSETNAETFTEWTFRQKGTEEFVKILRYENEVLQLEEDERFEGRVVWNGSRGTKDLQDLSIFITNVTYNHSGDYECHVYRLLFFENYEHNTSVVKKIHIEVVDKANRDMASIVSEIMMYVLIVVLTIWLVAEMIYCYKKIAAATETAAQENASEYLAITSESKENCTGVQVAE

Compound	pIC50
CC1(COc2cc(F)c(C(=O)N3CCC[C@H]3C(=O)O)cc2C2CC2)CN(C(c2ccccc2)c2cc(Cl)cc(Cl)c2)C1 (stereo partly drawn) [Example 28, (2S)-1-(5-cyclopropyl-4-((1-((3,5-dichlorophenyl)(phenyl)methyl)-3-methylazetidin-3-yl)methoxy)-2-fluorobenzoyl)pyrrolidine-2-carboxylic acid trifluoroacetic acid salt]	7.75
O=C(O)[C@@H]1CCCN1C(=O)c1cc(C2CC2)c(OCC2CCN(Cc3nc(-c4ccccc4Cl)no3)CC2)cc1F [Example 29, (S)-1-(4-((1-((3-(2-chlorophenyl)-1,2,4-oxadiazol-5-yl)methyl)piperidin-4-yl)methoxy)-5-cyclopropyl-2-fluorobenzoyl)pyrrolidine-2-carboxylic acid trifluoroacetic acid salt]	6.20
O=C(O)[C@@H]1CCCN1C(=O)c1cc(Cl)c(COc2ccc(OC(F)(F)F)c(Cl)c2)cc1F [Example 30, (S)-1-(5-chloro-4-((3-chloro-4-(trifluoromethoxy)phenoxy)methyl)-2-fluorobenzoyl)pyrrolidine-2-carboxylic acid]	6.46
N#CC1(COc2cc(F)c(C(=O)N3CCC[C@H]3C(=O)O)cc2Cl)C2CC3CC(C2)CC1C3 (stereo partly drawn) [Example 31, (S)-1-(5-chloro-4-(((1S,3S,5S,7S)-2-cyanoadamantan-2-yl)methoxy)-2-fluorobenzoyl)pyrrolidine-2-carboxylic acid]	< 5.00
N#CC1(COc2cc(F)c(C(=O)N3CCC[C@H]3C(=O)O)cc2C2CC2)C2CC3CC(C2)CC1C3 (stereo partly drawn) [Example 32, (S)-1-(4-(((1S,3S,5S,7S)-2-cyanoadamantan-2-yl)methoxy)-5-cyclopropyl-2-fluorobenzoyl)pyrrolidine-2-carboxylic acid]	5.81
CC(C)(C)OC(=O)N1CC(n2nccc2-c2cc(Cl)ccc2Oc2cc(F)c(C(=O)N3CCC[C@H]3C(=O)O)cc2F)C1 [Example 33, (S)-1-(4-(2-(1-(1-(tert-butoxycarbonyl)azetidin-3-yl)-1H-pyrazol-5-yl)-4-chlorophenoxy)-2,5-difluorobenzoyl)pyrrolidine-2-carboxylic acid]	< 5.00
O=C(O)[C@@H]1CCCN1C(=O)c1cc(F)c(Oc2ccc(Cl)cc2-c2ccnn2C2CNC2)cc1F [Example 34, (S)-1-(4-(2-(1-(azetidin-3-yl)-1H-pyrazol-5-yl)-4-chlorophenoxy)-2,5-difluorobenzoyl)pyrrolidine-2-carboxylic acid trifluoroacetic acid salt]	< 5.00
O=C(O)CNC(=O)c1cc(C2CC2)c(OCC23CC4CC(CC(C4)C2)C3)cc1F [Example 35, 2-(4-(adamantan-1-ylmethoxy)-5-cyclopropyl-2-fluorobenzamido) acetic acid]	5.11
O=C(NC1(C(=O)O)CC1)c1cc(Cl)c(Oc2ccc(OC(F)(F)F)c(Cl)c2)cc1F [Example 36, 1-(5-chloro-4-(3-chloro-4-(trifluoromethoxy)phenoxy)-2-fluorobenzamido)-cyclopropanecarboxylic acid]	< 5.00
O=C(O)[C@@H]1CCCN1C(=O)c1cc(Cl)c(Oc2ccc(OC(F)(F)F)c(Cl)c2)cc1F [Example 37, (S)-1-(5-chloro-4-(3-chloro-4-(trifluoromethoxy)phenoxy)-2-fluorobenzoyl)-pyrrolidine-2-carboxylic acid]	5.28
O=C(O)[C@@H]1CCCN1C(=O)c1cc(C2CC2)c(O[C@@H]2CCCN(Cc3ccc(F)cc3Cl)C2)cc1F [Example 38, (S)-1-(4-(((R)-1-(2-chloro-4-fluorobenzyl)piperidin-3-yl)oxy)-5-cyclopropyl-2-fluorobenzoyl)pyrrolidine-2-carboxylic acid trifluoroacetic acid salt]	6.82
CC(c1cc(Cl)cc(Cl)c1)N1CCC(COc2cc(F)c(C(=O)N3CCC[C@H]3C(=O)O)cc2C2CC2)CC1 (stereo partly drawn) [Example 39, (2S)-1-(5-cyclopropyl-4-((1-(1-(3,5-dichlorophenyl)ethyl)piperidin-4-yl)methoxy)-2-fluorobenzoyl)pyrrolidine-2-carboxylic acid trifluoroacetic acid salt]	7.36
